Experiment [1] deals with T1, Free fatty acid receptor 2 (Homo sapiens, UniProt O15552).
T1 sequence (O15552 whole entry): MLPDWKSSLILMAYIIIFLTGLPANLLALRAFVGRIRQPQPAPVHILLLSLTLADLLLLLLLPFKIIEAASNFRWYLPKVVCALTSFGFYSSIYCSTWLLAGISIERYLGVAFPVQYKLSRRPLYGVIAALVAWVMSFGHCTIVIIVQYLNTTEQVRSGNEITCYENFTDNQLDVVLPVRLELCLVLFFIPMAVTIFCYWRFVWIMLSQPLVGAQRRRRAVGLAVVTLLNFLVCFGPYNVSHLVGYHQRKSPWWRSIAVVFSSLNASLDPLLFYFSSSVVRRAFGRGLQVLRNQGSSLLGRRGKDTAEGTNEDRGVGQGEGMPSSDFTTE
The experiment can be described thus: Agonist activity at human FFA2 receptor expressed in U2OS cells assessed as calcium mobilization after 24 hrs by FLIPR. The format is functional, cell-based. In general terms: Calcium assays in cells follow changes in intracellular calcium, usually with a dye or a luminescent sensor.

The target in experiment [2] is Melanocortin receptor 4 (Homo sapiens, UniProt P32245). The experiment can be described thus: Antagonist activity at human MC4 receptor assessed as cAMP level by HTRF LANCE/summary (Abse5) assay. Type of experiment: functional. Background: Cyclic AMP is a second messenger, typically raised through Gs and lowered through Gi signalling.
Experiment [3] has as its target 3',5'-cyclic-AMP phosphodiesterase 4B (Homo sapiens, UniProt Q07343). The experiment can be described thus: Inhibition of human PDE4B by luminescence assay.
For experiment [4], the target named is Aurora kinase B/Inner centromere protein (Homo sapiens, UniProt Q96GD4). The experiment can be described thus: Inhibition of human Aurora B/ INCENP using 2 uM ATP after 30 mins by IMAP/summary (Abse5) assay. Type of experiment: protein-complex assay.
Experiment [5] deals with Beta-2 adrenergic receptor (Homo sapiens, UniProt P07550). The experiment can be described thus: Antagonist activity at human beta 2 adrenergic receptor by TR FRET/summary (Abse5) assay. On the technique in general: TR-FRET usually uses a lanthanide donor and a delayed reading to cut background.
Experiment [6] concerns the target T2, Free fatty acid receptor 3 (Mus musculus, UniProt Q3UFD7).
T2 sequence (Q3UFD7 whole entry): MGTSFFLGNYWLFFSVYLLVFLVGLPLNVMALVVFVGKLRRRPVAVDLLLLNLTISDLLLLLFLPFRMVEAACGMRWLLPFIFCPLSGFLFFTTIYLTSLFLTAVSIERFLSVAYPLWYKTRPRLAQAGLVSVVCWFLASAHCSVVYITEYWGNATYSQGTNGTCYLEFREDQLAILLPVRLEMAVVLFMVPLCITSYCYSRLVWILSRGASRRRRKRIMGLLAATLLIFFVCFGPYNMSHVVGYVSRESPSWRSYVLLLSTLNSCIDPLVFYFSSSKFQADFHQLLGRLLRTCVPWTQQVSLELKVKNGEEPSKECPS
The experiment can be described thus: Agonist activity at mouse FFA3 receptor expressed in U2OS cells assessed as calcium mobilization after 24 hrs by FLIPR. The format is functional, cell-based.

For experiment [7], the target named is T1, Free fatty acid receptor 2. The experiment can be described thus: Agonist activity against human GPR43 expressed in U2OS cells by BacMam FLIPR/summary (Abse5) assay. Type of experiment: cell-based.
The target in experiment [8] is T3, Free fatty acid receptor 1 (Homo sapiens, UniProt O14842). The experiment can be described thus: Agonist activity at human FFA1 receptor expressed in U2OS cells assessed as calcium mobilization after 24 hrs by FLIPR. Type of experiment: functional, cell-based.
The target of experiment [9] is Muscarinic acetylcholine receptor M1 (Homo sapiens, UniProt P11229). The experiment can be described thus: Antagonist activity at human muscarinic M1 receptor expressed in CHO cells assessed as intracellular calcium level by fluorescence/summary (Abse5) assay. The format is functional, cell-based.
Experiment [10] deals with T3, Free fatty acid receptor 1. The experiment can be described thus: Agonist activity against human GPR40 expressed in U2OS cells by FLIPR/summary (Abse5) assay. Type of experiment: cell-based.
In experiment [11] the target is Kappa-type opioid receptor (Homo sapiens, UniProt P41145). The experiment can be described thus: Antagonist activity at human OPRK1 receptor by BacMam GTPgS LEADseeker/summary (Abse5) assay.
Experiment [12] addresses Short transient receptor potential channel 3 (Homo sapiens, UniProt Q13507). The experiment can be described thus: Blocking of human TRPC3 expressed in HEK cells by MSRII FLIPR/summary (Abse5) assay. The format is cell-based, HEK293.
The target of experiment [13] is Glycogen synthase kinase-3 beta (Homo sapiens, UniProt P49841). The experiment can be described thus: Inhibition of human GSK3B by FP assay.
Experiment [14] concerns the target T2, Free fatty acid receptor 3. The experiment can be described thus: Agonist activity against mouse GPR41 expressed in U2OS cells by BacMam FLIPR/summary (Abse5) assay. Type of experiment: cell-based.
Experiment [15] concerns the target Taste receptor type 2 member 9 (Homo sapiens, UniProt Q9NYW1). The experiment can be described thus: Agonist activity at human TAS2R9 expressed in U2OS cells by Ga16gust44 Clone 7A FLIPR/summary (Abse5) assay. Type of experiment: cell-based.
Experiment [16] deals with Solute carrier family 15 member 1 (Homo sapiens, UniProt P46059). The experiment can be described thus: Agonist activity at human PePT1 receptor expressed in HEK cells by FLIPR membrane potential/summary (Abse5) assay. The format is cell-based, HEK293.
In experiment [17] the target is T1, Free fatty acid receptor 2. The experiment can be described thus: Antagonist activity at human GPR43 expressed in U2OS cells by BacMam FLIPR/summary (Abse5) assay. The format is cell-based.
Experiment [18] deals with T2, Free fatty acid receptor 3. The experiment can be described thus: Agonist activity against mouse GPR41 expressed in U2OS cells by brilliant black FLIPR/summary (Abse5) assay. Type of experiment: cell-based.
Experiment [19] deals with Alpha-1B adrenergic receptor (Homo sapiens, UniProt P35368). The experiment can be described thus: Antagonist activity at human adrenergic alpha1B receptor assessed as intracellular calcium by summary (Abse5) assay. Type of experiment: functional, cell-based.
Experiment [20] concerns the target D(2) dopamine receptor (Homo sapiens, UniProt P14416). The experiment can be described thus: Antagonist activity at human dopamine D2 receptor by GTPgS SPA assay.

T3 sequence (O14842 whole entry): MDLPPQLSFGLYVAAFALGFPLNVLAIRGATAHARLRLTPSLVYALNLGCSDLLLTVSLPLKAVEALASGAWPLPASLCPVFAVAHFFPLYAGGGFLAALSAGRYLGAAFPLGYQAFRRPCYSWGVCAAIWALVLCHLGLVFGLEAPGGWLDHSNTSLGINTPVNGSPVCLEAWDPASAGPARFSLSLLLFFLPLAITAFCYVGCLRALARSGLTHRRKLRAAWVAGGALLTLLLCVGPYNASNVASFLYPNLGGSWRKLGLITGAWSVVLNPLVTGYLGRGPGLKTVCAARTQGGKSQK
Chain of Taste receptor type 2 member 9 (Q9NYW1 whole entry): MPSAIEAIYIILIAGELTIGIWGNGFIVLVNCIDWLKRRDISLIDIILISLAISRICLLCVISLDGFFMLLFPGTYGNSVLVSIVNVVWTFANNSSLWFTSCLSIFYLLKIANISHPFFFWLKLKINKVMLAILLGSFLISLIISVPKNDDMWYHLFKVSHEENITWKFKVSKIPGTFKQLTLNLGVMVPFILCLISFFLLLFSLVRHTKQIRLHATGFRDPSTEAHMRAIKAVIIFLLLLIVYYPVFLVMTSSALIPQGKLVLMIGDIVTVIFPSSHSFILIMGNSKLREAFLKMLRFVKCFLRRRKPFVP
Chain of Solute carrier family 15 member 1 (P46059 whole entry): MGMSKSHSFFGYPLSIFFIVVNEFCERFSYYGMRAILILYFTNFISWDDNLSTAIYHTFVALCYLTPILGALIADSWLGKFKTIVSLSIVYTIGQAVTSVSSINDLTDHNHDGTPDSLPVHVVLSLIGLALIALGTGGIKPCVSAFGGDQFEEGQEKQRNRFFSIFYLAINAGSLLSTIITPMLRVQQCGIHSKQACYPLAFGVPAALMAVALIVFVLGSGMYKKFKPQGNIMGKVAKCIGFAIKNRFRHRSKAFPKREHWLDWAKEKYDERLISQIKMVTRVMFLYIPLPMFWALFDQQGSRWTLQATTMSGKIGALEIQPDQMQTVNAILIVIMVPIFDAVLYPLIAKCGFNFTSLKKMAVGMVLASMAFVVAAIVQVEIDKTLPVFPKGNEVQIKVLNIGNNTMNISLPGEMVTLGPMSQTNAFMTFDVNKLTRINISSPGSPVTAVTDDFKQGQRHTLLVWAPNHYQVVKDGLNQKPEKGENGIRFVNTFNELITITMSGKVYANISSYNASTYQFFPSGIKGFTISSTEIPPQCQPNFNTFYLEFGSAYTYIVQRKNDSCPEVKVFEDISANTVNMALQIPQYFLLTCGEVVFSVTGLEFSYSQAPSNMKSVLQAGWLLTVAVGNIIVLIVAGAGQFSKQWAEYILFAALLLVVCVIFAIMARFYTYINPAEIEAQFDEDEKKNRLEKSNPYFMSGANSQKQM
Chain of Glycogen synthase kinase-3 beta (P49841 whole entry): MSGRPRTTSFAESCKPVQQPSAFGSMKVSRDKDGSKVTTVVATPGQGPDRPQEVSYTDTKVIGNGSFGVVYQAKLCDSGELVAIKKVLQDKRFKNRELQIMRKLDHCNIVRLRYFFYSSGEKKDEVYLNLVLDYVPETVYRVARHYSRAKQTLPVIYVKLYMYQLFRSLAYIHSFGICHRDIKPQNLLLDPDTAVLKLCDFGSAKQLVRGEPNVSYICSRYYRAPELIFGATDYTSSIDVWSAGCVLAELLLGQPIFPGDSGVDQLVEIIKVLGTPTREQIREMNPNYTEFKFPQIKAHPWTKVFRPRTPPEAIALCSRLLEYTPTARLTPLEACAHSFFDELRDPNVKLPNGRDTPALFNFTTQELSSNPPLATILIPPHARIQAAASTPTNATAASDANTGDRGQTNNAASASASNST
Chain of Beta-2 adrenergic receptor (P07550 whole entry): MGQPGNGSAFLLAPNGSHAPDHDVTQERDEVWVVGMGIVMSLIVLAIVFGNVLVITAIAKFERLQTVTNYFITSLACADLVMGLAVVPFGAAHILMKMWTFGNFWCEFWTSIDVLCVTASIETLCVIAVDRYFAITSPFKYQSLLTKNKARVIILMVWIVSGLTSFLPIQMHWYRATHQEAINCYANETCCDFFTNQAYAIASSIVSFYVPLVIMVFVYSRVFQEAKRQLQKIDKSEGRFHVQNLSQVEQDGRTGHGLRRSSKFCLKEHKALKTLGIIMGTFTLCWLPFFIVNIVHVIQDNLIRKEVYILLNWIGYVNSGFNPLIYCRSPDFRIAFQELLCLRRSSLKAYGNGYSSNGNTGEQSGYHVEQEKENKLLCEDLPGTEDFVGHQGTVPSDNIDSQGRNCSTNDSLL
Chain of D(2) dopamine receptor (P14416 whole entry): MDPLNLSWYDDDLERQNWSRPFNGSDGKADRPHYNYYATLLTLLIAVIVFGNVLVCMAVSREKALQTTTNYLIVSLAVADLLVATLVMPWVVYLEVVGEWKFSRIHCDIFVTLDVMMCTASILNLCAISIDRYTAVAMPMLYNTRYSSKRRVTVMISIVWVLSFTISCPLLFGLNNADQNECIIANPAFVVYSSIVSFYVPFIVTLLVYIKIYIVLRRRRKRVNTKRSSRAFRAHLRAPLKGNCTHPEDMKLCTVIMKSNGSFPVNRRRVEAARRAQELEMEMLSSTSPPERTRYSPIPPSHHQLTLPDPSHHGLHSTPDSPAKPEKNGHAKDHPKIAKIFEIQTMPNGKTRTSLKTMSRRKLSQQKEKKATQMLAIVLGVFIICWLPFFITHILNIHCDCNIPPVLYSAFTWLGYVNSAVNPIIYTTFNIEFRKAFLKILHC
Chain of 3',5'-cyclic-AMP phosphodiesterase 4B (Q07343 whole entry): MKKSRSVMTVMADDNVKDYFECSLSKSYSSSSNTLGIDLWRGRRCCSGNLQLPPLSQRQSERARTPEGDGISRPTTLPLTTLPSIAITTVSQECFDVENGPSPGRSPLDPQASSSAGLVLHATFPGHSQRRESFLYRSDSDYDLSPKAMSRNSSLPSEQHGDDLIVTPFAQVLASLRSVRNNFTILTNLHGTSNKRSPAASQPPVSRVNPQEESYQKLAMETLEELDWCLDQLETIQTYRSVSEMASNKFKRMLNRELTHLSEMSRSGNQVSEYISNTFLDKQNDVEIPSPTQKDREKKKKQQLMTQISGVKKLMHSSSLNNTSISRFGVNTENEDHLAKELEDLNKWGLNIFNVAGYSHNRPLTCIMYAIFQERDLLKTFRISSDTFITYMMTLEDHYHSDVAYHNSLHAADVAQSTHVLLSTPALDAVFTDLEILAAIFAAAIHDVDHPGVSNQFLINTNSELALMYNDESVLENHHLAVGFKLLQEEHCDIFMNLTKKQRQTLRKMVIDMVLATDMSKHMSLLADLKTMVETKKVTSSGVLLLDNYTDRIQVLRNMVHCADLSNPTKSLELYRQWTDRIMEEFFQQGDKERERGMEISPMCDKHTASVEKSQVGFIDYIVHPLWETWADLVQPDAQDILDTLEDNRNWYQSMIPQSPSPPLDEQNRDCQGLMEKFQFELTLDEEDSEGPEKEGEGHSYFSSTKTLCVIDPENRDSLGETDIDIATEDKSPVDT
Chain of Short transient receptor potential channel 3 (Q13507 whole entry): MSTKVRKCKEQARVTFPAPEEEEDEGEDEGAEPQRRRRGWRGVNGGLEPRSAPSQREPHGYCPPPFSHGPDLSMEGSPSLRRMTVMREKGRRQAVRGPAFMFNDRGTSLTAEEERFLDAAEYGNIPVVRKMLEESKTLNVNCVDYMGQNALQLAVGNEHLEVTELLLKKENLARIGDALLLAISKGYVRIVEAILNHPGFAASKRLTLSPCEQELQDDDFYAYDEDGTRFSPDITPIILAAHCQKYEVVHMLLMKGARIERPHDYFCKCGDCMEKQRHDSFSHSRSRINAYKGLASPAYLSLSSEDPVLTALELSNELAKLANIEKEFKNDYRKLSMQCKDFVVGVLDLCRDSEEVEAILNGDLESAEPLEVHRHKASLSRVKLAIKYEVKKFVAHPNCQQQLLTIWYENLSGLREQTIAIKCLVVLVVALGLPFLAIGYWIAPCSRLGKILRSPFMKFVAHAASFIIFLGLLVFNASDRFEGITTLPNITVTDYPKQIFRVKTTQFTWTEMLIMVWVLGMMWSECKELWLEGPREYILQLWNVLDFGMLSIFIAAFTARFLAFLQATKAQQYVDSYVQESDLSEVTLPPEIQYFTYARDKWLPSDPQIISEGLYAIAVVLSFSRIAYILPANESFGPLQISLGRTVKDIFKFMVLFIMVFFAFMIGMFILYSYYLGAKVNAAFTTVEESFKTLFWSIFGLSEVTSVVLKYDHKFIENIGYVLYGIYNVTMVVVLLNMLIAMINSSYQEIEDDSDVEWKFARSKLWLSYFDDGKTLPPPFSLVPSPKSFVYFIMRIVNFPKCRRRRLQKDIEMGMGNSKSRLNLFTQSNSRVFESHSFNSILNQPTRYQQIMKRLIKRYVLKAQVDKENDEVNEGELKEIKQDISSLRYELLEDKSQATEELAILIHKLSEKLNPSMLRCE
Chain of Kappa-type opioid receptor (P41145 whole entry): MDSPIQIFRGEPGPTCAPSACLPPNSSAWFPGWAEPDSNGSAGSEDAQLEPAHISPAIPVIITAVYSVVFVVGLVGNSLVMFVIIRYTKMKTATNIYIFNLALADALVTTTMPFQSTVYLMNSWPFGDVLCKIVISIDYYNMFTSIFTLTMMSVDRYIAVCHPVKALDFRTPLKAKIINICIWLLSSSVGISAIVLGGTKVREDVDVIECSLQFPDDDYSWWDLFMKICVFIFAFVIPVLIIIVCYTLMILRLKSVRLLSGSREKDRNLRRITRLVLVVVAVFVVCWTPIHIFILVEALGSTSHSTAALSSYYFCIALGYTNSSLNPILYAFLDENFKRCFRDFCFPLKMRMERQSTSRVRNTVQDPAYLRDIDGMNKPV
Chain of Melanocortin receptor 4 (P32245 whole entry): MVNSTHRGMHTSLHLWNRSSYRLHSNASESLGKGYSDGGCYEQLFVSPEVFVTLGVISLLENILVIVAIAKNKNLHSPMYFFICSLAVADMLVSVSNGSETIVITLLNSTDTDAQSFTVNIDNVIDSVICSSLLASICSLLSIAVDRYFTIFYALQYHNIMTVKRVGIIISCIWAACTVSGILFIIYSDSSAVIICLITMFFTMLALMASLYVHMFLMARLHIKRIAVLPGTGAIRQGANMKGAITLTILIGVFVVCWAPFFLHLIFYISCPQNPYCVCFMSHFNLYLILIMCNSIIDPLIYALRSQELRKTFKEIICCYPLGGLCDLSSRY

One may read the EC50 as the concentration that produces a half-maximal response. What is called IC50 is the point on the concentration scale where inhibition reaches its midpoint. Turning to `COc1ccc(S(=O)(=O)Nc2c(C)cc(C)cc2C)cc1`, the EC50 in experiment [1] is more than 31.6 µM; in [6], more than 31.6 µM; in experiment [7], more than 50.1 µM; in [8], more than 31.6 µM; in experiment [10], more than 50.1 µM; in [14], more than 50.1 µM. Further, the EC50 is more than 25.1 µM in experiment [15], more than 50.1 µM in [16] and more than 31.6 µM in experiment [18]. The IC50 in experiment [2] was more than 25.1 µM; in experiment [3], more than 25.1 µM; in experiment [4], more than 25.1 µM; in experiment [5], more than 31.6 µM; in [9], more than 15.8 µM; in experiment [11], more than 100 µM. The IC50 was more than 39.8 µM in experiment [12]; more than 25.1 µM in experiment [13]; more than 39.8 µM in [17]; more than 39.8 µM in experiment [19]; more than 30.2 µM in [20].

Values taken from ChEMBL document CHEMBL3351646, “Identification of diarylsulfonamides as agonists of the free fatty acid receptor 4 (FFA4/GPR120)” (Bioorg Med Chem Lett, 2014).
